Here are results for five molecules from patent US12540117B2, “Aniline compound used as RORγ regulator” (SHANGHAI LITEDD CO., LTD., priority 2020, dated 2026).

One may read the Emax as the size of the effect at its maximum, as opposed to the concentration needed. Usually IC50 stands for the concentration at which inhibition is half-maximal. As a reminder, the half-life is the time needed for the level to fall by half in the phase considered. By AUC(0-t) is commonly meant exposure summed from dosing to a finite time, without extrapolation to infinity. A higher AUC(0-t) goes with high exposure. As a reminder, the Cmax is the peak of the concentration-time curve.

In data set [1] the test system is Th17 cells differentiation and secretion of IL-17. The experiment in a line: Inhibition of Th17 differentiation in human PBMC (IL-17 ELISA). In kind it is cell-based. The settings on record: for Emax: Homo sapiens, PBMC, maximum inhibition rate, maximum concentration 3 μM; for IC50: IL-17 secretion, human PBMC, 48 hours. How it is done: Test procedure: the PBMC cells were first thawed and plated, and then stimulated with the stimulating factors (anti-hCD28: 5 μg/mL; rhTGF-β1: 5 ng/mL; rhIL-6: 20 ng/mL; rhIL-23: 10 ng/mL) to differentiate to Th17, while different concentrations of compounds were added, with the maximum concentration starting from 3 μM. After 48 hours, the supernatant was collected for IL-17 ELISA detection. The inhibition rates of the compounds to inhibit the secretion of IL-17 by Th17 cells were determined, as compared with the vehicle group, and the IC50 values were fitted with Graphad8.0.

A short description of data set [2]: Metabolic stability in mouse liver microsomes. The settings on record: for half-life: CD-1, 0.5 mg protein/mL; for microsomal CLint: CD-1, read-out: CLint(mic). In kind it is in vitro ADME, CD-1 mice. From the text: (§1) According to standard methods for investigating in vitro metabolic stability in the art, e.g., the methods described in Kerns, Edward H. and Di Li (2008). Drug-like Properties: Concepts, Structure Design and Methods: from ADME to Toxicity Optimisation. San Diego: Academic Press; Di, Li et al., Optimisation of a Higher Throughput Microsomal Stability Screening Assay for Profiling Drug Discovery Candidates, J. Biomol. Screen. 2003, 8(4), 453, the liver microsomal metabolic stability test of the compounds of the present disclosure was carried out analogously as follows. The incubation system comprising 0.5 mg protein/mL microsomes, cofactors, and PBS, was pre-incubated at 37° C. for 3 min, and then added the substrate (i.e., the test compounds) to initiate the reaction. Samples were taken at 0, 1, 5, 10, 15, 20, 30 and 60 min from the start of the reaction, and an appropriate terminator was added to terminate the reaction. Sample treatment (n=3): appropriate samples were added respectively, vortexed and centrifuged at high speed. The supernatants were collected and detected for the substrate by HPLC-MS/MS. The peak area at the 0 mm was taken as 100%. The peak areas at other time points were converted to percentages of remaining. The natural logarithms of the percentages of remaining at each time point was plotted against the incubation time, and the slope (−k) was calculated by linear regression. Then, Clint (μL/min/mg) and half-life (T½, min.) of the compounds were calculated following the equation: Inherent clearance rate (Clint)=(k*Volume of incubation solution)/Mass of liver microsomes.
For orientation: Liver microsomes are a subcellular fraction often used to study metabolism.

Data set [3] addresses T1, RORγt (Homo sapiens, UniProt P51449).
T1 sequence (P51449 269-508 limits assumed): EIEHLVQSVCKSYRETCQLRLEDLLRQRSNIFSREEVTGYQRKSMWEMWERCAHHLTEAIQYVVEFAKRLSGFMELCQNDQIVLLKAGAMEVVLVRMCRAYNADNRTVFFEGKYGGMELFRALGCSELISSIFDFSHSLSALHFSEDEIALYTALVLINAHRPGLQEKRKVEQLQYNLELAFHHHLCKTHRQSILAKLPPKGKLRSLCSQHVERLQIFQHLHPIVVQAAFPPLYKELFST
The experiment in a line: In vitro luciferase reporter assay of RORγt inhibition (GAL4-RORγ-LBD in HEK293T). The settings on record: for Emax: HEK-293T, relative maximum inhibition rate relative to AZD-0284 at 10 μM; for IC50: IC50, RORγt luciferase reporter gene, HEK293T. On the technique in general: Reporter assays use an easily measured gene product as a stand-in for the process of interest.
Excerpt: The RORγ-LBD coding sequence was inserted into pBIND plasmid (Promega, E1581). The expression vector and a reporter vector (pGL4.35 carrying a stably integrated luciferase reporter gene driven by GAL4 promoter) were co-expressed in HEK293T host cells. When the inhibitor binds to the corresponding chimeric receptor, the chimeric receptor binds to the GAL4 binding site on the reporter gene carrier and inhibits reporter gene expression. The inhibition activity of the compounds on RORγ was determined according to the intensity of the chemiluminescence signal.
2.2 Cell Transfection • a) Balancing the Trans-IT transfection reagent at room temperature; • b) Adding 20 μl of the transfection reagent and 600 μl of Opti-MEM™ medium without contacting the tube wall, mixing uniformly through blowing and pipetting by a pipette gun, and allowing to stand at room temperature for 5 minutes; • c) Adding 10 μg of the plasmid to the transfection reagent (see Step 2.2.b), and allowing to stand at room temperature for 20 minutes; • Plasmids: 5 μg of pBIND-RORγ and 5 μg of pGL4.35 plasmids were respectively added therein; • d) Adding the mixed DNA transfection reagent to a 100 mm cell culture dish (see Step 2.1); • e) Placing the dish in an incubator at 37° C. and 5% CO2 for 5 h. […] Calculation of % Inhibition
[formula] • RLUcmpd: fluorescence value of test compounds • RLUpositive: average value of positive control • RLUvehicle: average value of negative control
IC50s of the compounds were calculated by fitting the % Inhibition and the logarithm values of the compound concentration using Graphad 8.0.

A short description of data set [4]: Pharmacokinetic (PK) assay in mice. The class given is in vivo, C57BL/6 mice. The settings on record: for AUC(0-t) / Cmax / half-life / Vd / bioavailability: C57BL/6, mouse, plasma; for Vd: read-out: Vss; for bioavailability: Po 5 mg/kg vs IV 1 mg/kg. How it is done:
The PK of each compound was determined as follows: 6 C57BL/6 mice (obtained from Shanghai Lingchang Biotechnology Co., Ltd.) were divided into two groups with 3 in each group. One group was administered intravenously at a dose of 1 mg/kg in the vehicle of 5% DMSO/95% (20% Captisol); the other group was administered by oral gavage at a dose of 5 mg/kg in the vehicle of 0.5% CMC-Na/0.5% Tween 80. Blood samples were collected from saphenous vein of lower leg in each group at 0, 0.083, 0.25, 0.5, 1, 2, 4, 6, 8 and 24 h after administration. Approximately 40 μL of the blood samples were collected into anticoagulant tubes containing EDTA-K2 Immediately after collection, the tubes were inverted at least 5 times to ensure uniform mixing, and then placed on ice. The blood samples collected at each time point were centrifuged at 4° C., 8000 rpm for 5 minutes to obtain plasma. Another 1.5 mL centrifuge tube was marked with the compound name, animal number, and time point, and the plasma was transferred to this tube. The plasma was stored at −80° C. until analysis.
Compound concentrations in the plasma were determined by UPLC-MS/MS method, and the pharmacokinetic parameters were calculated from the obtained data by Phoenix WinNolin 6.4 pharmacokinetic software.

A short description of data set [5]: Metabolic stability in human liver microsomes. The class given is in vitro ADME. The following applies: for half-life: 0.5 mg protein/mL; for microsomal CLint: read-out: CLint(mic).
Excerpt: as §1

In data set [1], `CCS(=O)(=O)c1ccc2c(c1)CCN(C(C)=O)C2C(=O)Nc1ccc(C(O)(C(F)(F)F)C(F)(F)F)cc1` (racemic) [Example 1, 2-Acetyl-6-(ethylsulfonyl)-N-(4-(1,1,1,3,3,3-hexafluoro-2-hydroxypropan-2-yl)phenyl)-1,2,3,4-tetrahydroisoquinoline-1-carboxamide] registered an Emax of 79% and an IC50 of 51.4 nM. For the same molecule, in data set [2], the half-life is > 2.42 h, the microsomal CLint is < 9.6 µL/min/mg and the “Remaining % (T = 60 min)” value came to 94.5%. Besides, in data set [3], the Emax worked out at 102% and 19.1 nM corresponded to half-maximal inhibition (IC50). Further, in data set [4] (IV, 1 mg/kg), the AUC(0-t) amounted to 1850 ng·h/mL, the concentration peaked (Cmax) at 1390 ng/mL, the half-life was 5.09 h and the Vd came out at 2.71 L/kg. The CL_obs in data set [4] (IV, 1 mg/kg) was determined as 7.12 mL/min/kg. For the same molecule, the bioavailability in data set [4] was 84%. In data set [4] (Po, 5 mg/kg), the AUC(0-t) is 9640 ng·h/mL, the Cmax amounted to 816 ng/mL and the half-life was 3.91 h. In data set [5], the half-life is > 2.42 h, the “Remaining % (T = 60 min)” value came out at 94.2% and the microsomal CLint was < 9.6 µL/min/mg.

In the case of `CCS(=O)(=O)c1ccc2c(c1)CCN(C(C)=O)C2C(=O)Nc1ccc(C(F)(C(F)(F)F)C(F)(F)F)cc1` (racemic) [Example 7, 2-Acetyl-6-(ethylsulfonyl)-N-(4-(perfluoropropan-2-yl)phenyl)-1,2,3,4-tetrahydroisoquinoline-1-carboxamide], in data set [1], the Emax came to 72% and the IC50 stood at 21.1 nM. Moreover, in data set [2], the half-life was > 2.42 h, the microsomal CLint is < 9.6 µL/min/mg and the “Remaining % (T = 60 min)” value was 79.7%. In data set [3], this molecule gave an Emax of 99.6% and an IC50 of 12.4 nM. In data set [4] (IV, 1 mg/kg), the AUC(0-t) turned out to be 4870 ng·h/mL, the peak level (Cmax) was 703 ng/mL, the half-life is 39.9 h and the Vd stood at 4.02 L/kg. The CL_obs in data set [4] (IV, 1 mg/kg) turned out to be 1.23 mL/min/kg. The bioavailability in data set [4] stood at 83.5%. In data set [4] (Po, 5 mg/kg), the AUC(0-t) stood at 20300 ng·h/mL, the highest level (Cmax) was 1080 ng/mL and the half-life was 37.6 h. Besides, in data set [5], the half-life came out at 1.26 h, the “Remaining % (T = 60 min)” value amounted to 61.0% and the microsomal CLint is 18.4 µL/min/mg.

`CCS(=O)(=O)c1ccc2c(c1)CCN(C(C)=O)C2C(=O)Nc1ccc(C(O)(C(F)(F)F)C(F)(F)F)cc1` (single isomer, unassigned) [Example 2, (R)-2-acetyl-6-(ethylsulfonyl)-N-(4-(1,1,1,3,3,3-hexafluoro-2-hydroxypropan-2-yl)phenyl)-1,2,3,4-tetrahydroisoquinoline-1-carboxamide or (S)-2-acetyl-6-(ethylsulfonyl)-N-(4-(1,1,1,3,3,3-hexafluoro-2-hydroxypropan-2-yl)phenyl)-1,2,3,4-tetrahydroisoquinoline-1-carboxamide]: in data set [1], the Emax stood at 78.3% and the IC50 turned out to be 22.7 nM. Moreover, in data set [2], the half-life was > 2.42 h, the microsomal CLint is < 9.6 µL/min/mg and the “Remaining % (T = 60 min)” value is 102.3%. In data set [3], this molecule yielded an Emax of 100% and a half-inhibitory concentration (IC50) of 8 nM. In data set [4] (IV, 1 mg/kg), the AUC(0-t) amounted to 1300 ng·h/mL, the Cmax amounted to 2310 ng/mL, the half-life is 1.78 h and the Vd amounted to 1.06 L/kg. This molecule returned a CL_obs in data set [4] (IV, 1 mg/kg) of 12.8 mL/min/kg. The bioavailability in data set [4] was 82.1%. In data set [4] (Po, 5 mg/kg), this molecule showed an exposure AUC(0-t) of 5330 ng·h/mL, a Cmax of 553 ng/mL and a half-life of 3.31 h. In data set [5], the half-life is > 2.42 h, the “Remaining % (T = 60 min)” value was 82.2% and the microsomal CLint is < 9.6 µL/min/mg.

On to `CC(=O)N1CCc2cc(S(C)(=O)=O)ccc2C1C(=O)Nc1ccc(C(O)(C(F)(F)F)C(F)(F)F)cc1` (centres unmarked) [Example 5, 2-Acetyl-N-(4-(1,1,1,3,3,3-hexafluoro-2-hydroxypropan-2-yl)phenyl)-6-(methylsulfonyl)-1,2,3,4-tetrahydroisoquinoline-1-carboxamide], for which, in data set [2], the half-life was > 2.42 h, the microsomal CLint is < 9.6 µL/min/mg and the “Remaining % (T = 60 min)” value came to 86.6%. Moreover, in data set [4] (IV, 1 mg/kg), the AUC(0-t) is 1190 ng·h/mL, the Cmax is 1890 ng/mL, the half-life is 4.89 h and the Vd amounted to 3.34 L/kg. For the same molecule, the CL_obs in data set [4] (IV, 1 mg/kg) worked out at 13.8 mL/min/kg. Also, the bioavailability in data set [4] came out at 213%. Moreover, in data set [4] (Po, 5 mg/kg), the AUC(0-t) was found to be 12600 ng·h/mL, the Cmax worked out at 1370 ng/mL and the half-life is 4.33 h. Besides, in data set [5], the half-life was > 2.42 h, the “Remaining % (T = 60 min)” value turned out to be 85.0% and the microsomal CLint was < 9.6 µL/min/mg.

With `CCS(=O)(=O)c1cc2c(s1)C(C(=O)Nc1ccc(C(O)(C(F)(F)F)C(F)(F)F)cc1)N(C(C)=O)CC2` (centres unmarked) [Example 6, 6-Acetyl-2-(ethylsulfonyl)-N-(4-(1,1,1,3,3,3-hexafluoro-2-hydroxypropan-2-yl)phenyl)-4,5,6,7-tetrahydrothieno[2,3-c]pyridine-7-carboxamide], in data set [2], the half-life was determined as 1.54 h, the microsomal CLint came out at 14.9 µL/min/mg and the “Remaining % (T = 60 min)” value turned out to be 59.4%. In addition, in data set [3], the Emax worked out at 99.9% and the IC50 is 113 nM. Besides, in data set [5], the half-life was > 2.42 h, the “Remaining % (T = 60 min)” value came to 70.2% and the microsomal CLint was < 9.6 µL/min/mg.
